Patent publication US4602015A, “2-piperazinopyrimidine salt and pharmaceutical compositions containing it” (priority 1983, dated 1986)

Columns and labels:
[1] = system: rotational behaviour after unilateral lesion of the striatum; assay: rotational behaviour in mice after unilateral 6-hydroxydopamine lesion of the striatum; type: in vivo, Female Charles River CD1 mice; settings: for Variation % of turns as compared to controls: Table II, mouse, oral, 1 h after administration, doses 0.15 (base), 0.18 (hydrochloride), 0.34 (napsilate) mg/kg = 0.15 mg/kg free base, ** p < 0.01, ns not significant
Excerpt: (§1) The dopaminergic mechanism of the compound of the invention was studied in comparison with the corresponding free base and its hydrochloride by analysing the rotational behaviour in mice after unilateral lesion of the striatum (P. Protais et al., J. Pharmacol. 1976, 7, 251-255).
(§2) Female Charles River CD1 mice weighing 20-24 g were previously subjected to a unilateral lesion of the striatum by stereotaxic injection of 8 mcg/animal of 6-hydroxydopamine. A week later, the 2-(1-piperazinyl)-pyrimidine napsilate, the 2-(1-piperazinyl)pyrimidine hydrochloride and the free base were administered by oral route to groups of six mice at a dose corresponding to 0.15 mg/kg of free base. The number of turns was recorded, during 2 minutes, one hour after the administration of the three products. The turns ipsilateral to the lesion were plotted as positive values, the contralateral turns were plotted as negative values. The algebric sum of turns for each group of treated animals was compared to that of control animals treated with the vehicle (saline) only.

[2] = system: rotational behaviour after unilateral lesion of the striatum; assay: rotational behaviour in lesioned mice, time course 60, 180 and 360 minutes; type: in vivo, Female Charles River CD1 mice; settings: Table III, mouse, oral, dose corresponding to 0.15 mg/kg free base, ** p < 0.01, ns not significant
[3] = system: rotational behaviour after unilateral lesion of the striatum; assay: as above; type: in vivo, Female Charles River CD1 mice; settings: for Variation % of turns after 60 minutes: Table III, mouse, oral, dose corresponding to 0.15 mg/kg free base, ** p < 0.01, ns not significant
Excerpt: as §1, §2
The dopaminergic action of the compound of the present invention has also been evaluated in the time in comparison with the corresponding free base and the hydrochloride thereof.

[4] = system: prochlorperazine-induced catalepsy; assay: antagonism of prochlorperazine-induced catalepsy (cork test, oral); type: in vivo, Wistar male rats; settings: rat; for Prochlorperazine Catal. antag. ED50: 1 h before prochlorperazine 10 mg/kg s.c., interval in parentheses printed on next line: napsilate (5.0-6.4), base (12-45)
Experimental: The antidepressive activity of the compound of the invention has been evaluated in the test of antagonism of prochlorperazine-induced catalepsy (K. Biziere et al., Arzneimittel Forschung, 1982, 32 (II), 824-831). The 2-(1-piperazinyl)pyrimidine napsilate and the corresponding free base, as reference compound, were administered orally to groups of 10 Wistar male rats weighing 220-240 g; at the same time control animals were treated with saline. One hour later, prochlorperazine was administered subcutaneously at a dose of 10 mg/kg. Five hours after this administration, the number of cataleptic animals was assessed by the cork test. According to this test the animals were placed with their forepaws on a stand formed by three superposed corks (11 cm total height) and forced to maintain this position for 20 seconds at least. The performances of each group of animals were compared with those of the controls having received the vehicle and prochlorperazine only.

[5] = H. W. Stewart et al., J. Org. Chem. 1953; cited from earlier work
[6] = psychotropic activity (general statement); type: in vivo

Row | SMILES | Variation % of turns as compared to controls [1] | dopaminergic activity (in words) ([1]; comment on Table II) | effect on algebric sum of turns (in words) ([1]; comment on Table II) | Variation % of turns after 180 minutes [2] | Variation % of turns after 360 minutes [2] | Variation % of turns after 60 minutes [3] | activity with time (in words) ([3]; comment on Table III) | Prochlorperazine Catal. antag. ED50 [4] | analgesic or antifilarial activity (in words) [5] | negative variation of turns ([1]; comment on Table II, contralateral turns exceed ipsilateral turns) | oral activity relative to corresponding free base (times more active) ([4]; ratio versus free base) | potency versus reference products (in words) ([3]; comment on Table III, versus free base and hydrochloride) | psychotropic activity (in words) ([6]; dopaminergic mechanism, antipsychotic, antidepressive, tranquillizing-sedative) | activity versus free base and hydrochloride (in words) ([6]; in the absolute sense) | duration of activity (in words) ([6]; in vivo)
1 | Cl.c1cnc(N2CCNCC2)nc1 [2-(1-piperazinyl)pyrimidine hydrochloride] | -29% | nearly inactive | no significant effect | -28% | -22% | -29% | inactive with the time too | – | – | – | – | – | – | – | –
2 | c1cnc(N2CCNCC2)nc1 [2-(1-piperazinyl)pyrimidine base, 2-(1-piperazinyl)pyrimidine] | -94% | – | significantly reduces the algebric sum of turns | -62% | -60% | -94% | tends to decrease with the time | 24 mcmol/kg | none of which has shown analgesic or antifilarial activity | – | – | – | – | – | –
3 | c1cnc(N2CCNCC2)nc1 [2-(1-piperazinyl)pyrimidine napsilate, 2-(1-piperazinyl)pyrimidine 2-naphtalenesulfonate] | -117% | dopaminergic activity higher than that of the free base | – | -126% | -147% | -117% | increases significantly with the time | 5.7 mcmol/kg | – | higher than 100% | about 4 times | more potent than the reference products | very good psychotropic activity | much more active | long-lasting and increases with time
